Source: publication PMC7898822, “RNA‐PROTACs: Degraders of RNA‐Binding Proteins” (Angewandte Chemie (International Ed. in English), 2020)
Read-outs that look alike come from different tables or passages of the source.

Columns and labels:
Lin28_ZKD [1] = target: T1, Lin28_ZKD (Homo sapiens, UniProt Q9H9Z2); assay: Fluorescence polarization competition assay (displacement of let7FAM from Lin28_ZKD); assay type: binding
T1 construct: construct encoding amino acids 124–186 of human Lin28; His6; made in house; host or cells: Escherichia coli BL21 (DE3) Codon+ (RIL)
T1 sequence (Q9H9Z2 124-186): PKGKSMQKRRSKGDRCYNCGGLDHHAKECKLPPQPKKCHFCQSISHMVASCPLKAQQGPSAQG
Protocol: Fluorescence Polarization Assay. Fluorescence polarization titration assay was carried out by titrating Lin28_ZKD protein into FAM-labeled PreE-let-7 at a 10 nM final concentration and buffer (10 mM HEPES, 150 mM NaCl, 10 µM ZiCl2, pH 7,4). The assay plate was briefly vortexed, and air bubbles were removed by spinning at 1000 rpm. The fluorescence anisotropy was measured on a Spectra Max Paradigm multimode plate reader (Molecular Devices). The fluorescence polarization competition […]
preE-let-7. The concentration of Lin28_ ZKD is kept at 40 nM, a value in the range of the dissociation constant of Lin28_ZKD and preE-let-7 determined through fluorescence polarization titration assay, whereas preE-let-7 concentration is kept constant at 10 nM. FP competitive binding assays were performed on 384-well plates (#3575, Corning) with a total well volume of 10 µL.
Fluorescence polarization readings were transferred into Prism 7.0 (GraphPad). All fluorescence polarization assays were repeated at least three times and the anisotropy values fitted using GraphPad Prism software using 1:1 binding/inhibition model. […]

Lin28A = assay: Western blot of Lin28A in K562 cells; assay type: cell-based, human; details: K562 cells, 48 h, western blot; three independent experiments
From the text: Finally, we tested RNA‐PROTACs for their ability to degrade their target in two cell lines: the embryonic NT2/D1 cell line, which expresses high levels of Lin28A, ^[13a] and K562 cells which express Lin28A and Lin28B. […] Finally, we co‐treated K562 cells with ORN3P1 and MG132, a reversible inhibitor of the 26S proteasome. […] In order to explore the versatility of RNA‐PROTACs with non peptide‐based VHL ligands, we conjugated small‐molecule VH032 ^[38] to ORN3 via an amino linker to yield ORN3VH032 (Figure S1). […]

Lin28_ZKD [2] = target: T1, Lin28_ZKD; assay: NMR 1H-15N HSQC titration of Lin28_ZKD; assay type: binding; details: 10 mM HEPES pH 7.0, 303K
From the text: The oligonucleotide element of an RNA‐PROTAC binds its target RBP via interactions at the riboses and the backbone, as well as the nucleobases. […] Thus, we used the same method to examine how various ribose modifications of L28RBE (Table 1, Figure S1) might affect binding of an RNA‐PROTAC to Lin28_ZKD.

K562 cells = assay: Intracellular uptake of FAM-labelled oligonucleotides, fluorescence microscopy; assay type: cell-based, human; details: FAM-conjugated, 1 µM, 24 h

With `CC[C@H](C)[C@H](NC(=O)[C@H](Cc1ccc(O)cc1)NC(=O)[C@@H]1C[C@@H](O)CN1C(=O)[C@H](C)NC(=O)[C@H](CC(C)C)NC(=O)CCCCCNC(=O)[C@@H](N)CSC1CC(=O)N(CCOP(=O)(S)OC[C@H]2O[C@@H](n3cnc4c(N)ncnc43)[C@H](OC)[C@@H]2OP(=O)(S)OC[C@H]2O[C@@H](n3cnc4c(=O)[nH]c(N)nc43)[C@H](OC)[C@@H]2OP(=O)(S)OC[C@H]2O[C@@H](n3cnc4c(=O)[nH]c(N)nc43)[C@H](OC)[C@@H]2OP(=O)(S)OC[C@H]2O[C@@H](n3cnc4c(N)ncnc43)[C@H](OC)[C@@H]2OP(=O)(S)OC[C@H]2O[C@@H](n3cnc4c(=O)[nH]c(N)nc43)[C@H](OC)[C@@H]2OP(=O)(S)OC[C@H]2O[C@@H](n3cnc4c(N)ncnc43)[C@H](OC)[C@@H]2OP(=O)(S)OC[C@H]2O[C@@H](n3ccc(=O)[nH]c3=O)[C@H](OC)[C@@H]2O)C1=O)C(=O)O` (stereo partly drawn) [ORN4P1] as the compound, how does the IC50 (Lin28_ZKD [1]) read?
The IC50 was 208 ± 27.4 nM.

`CCCC[C@H](NC(=O)[C@H](C)NC(=O)[C@H](CC(C)C)NC(=O)CCCCCNC(=O)[C@@H](N)CSC1CC(=O)N(CCOP(=O)(S)OC[C@H]2O[C@@H](n3cnc4c(N)ncnc43)[C@H](OC)[C@@H]2OP(=O)(S)OC[C@H]2O[C@@H](n3cnc4c(=O)[nH]c(N)nc43)[C@H](OC)[C@@H]2OP(=O)(S)OC[C@H]2O[C@@H](n3cnc4c(=O)[nH]c(N)nc43)[C@H](OC)[C@@H]2OP(=O)(S)OC[C@H]2O[C@@H](n3cnc4c(N)ncnc43)[C@H](OC)[C@@H]2OP(=O)(S)OC[C@H]2O[C@@H](n3cnc4c(=O)[nH]c(N)nc43)[C@H](OC)[C@@H]2OP(=O)(S)OC[C@H]2O[C@@H](n3cnc4c(N)ncnc43)[C@H](OC)[C@@H]2OP(=O)(S)OC[C@H]2O[C@@H](n3ccc(=O)[nH]c3=O)[C@H](OC)[C@@H]2O)C1=O)C(=O)N[C@@H](Cc1ccc(O)cc1)C(=O)N[C@H](C(=O)O)[C@@H](C)CC` (stereo partly drawn) [ORN4Pcon] was tested. Which IC50 (Lin28_ZKD [1]) did it give?
Its IC50 is 206 ± 2.1 nM.

How did the “Lin28A suppression (in words)” value (Lin28A) turn out when `CC[C@H](C)[C@H](NC(=O)[C@H](Cc1ccc(O)cc1)NC(=O)[C@@H]1C[C@@H](O)CN1C(=O)[C@H](C)NC(=O)[C@H](CC(C)C)NC(=O)CCCCCNC(=O)[C@@H](N)CSC1CC(=O)N(CCOP(=O)(S)OC[C@H]2O[C@@H](n3cc(C)c(=O)[nH]c3=O)[C@H](OCCOC)[C@@H]2OP(=O)(S)OC[C@H]2O[C@@H](n3cc(C)c(=O)[nH]c3=O)[C@H](OCCOC)[C@@H]2OP(=O)(S)OC[C@H]2O[C@@H](n3cc(C)c(=O)[nH]c3=O)[C@H](OCCOC)[C@@H]2OP(=O)(S)OC[C@H]2O[C@@H](n3cnc4c(N)ncnc43)[C@H](OCCOC)[C@@H]2OP(=O)(S)OC[C@H]2O[C@@H](n3cc(C)c(=O)[nH]c3=O)[C@H](OCCOC)[C@@H]2OP(=O)(S)OC[C@H]2O[C@@H](n3cc(C)c(=O)[nH]c3=O)[C@H](OCCOC)[C@@H]2OP(=O)(S)OC[C@H]2O[C@@H](n3cnc4c(=O)[nH]c(N)nc43)[C@H](OCCOC)[C@@H]2O)C1=O)C(=O)O` (stereo partly drawn) [ORN5P1] was run?
Its value is “inactive”.

What about the “activity in FP competition assay (in words)” value (Lin28_ZKD [1]; displacement of let7FAM from Lin28_ZKD) of the same compound?
Its value is “weak effect on Lin28_ZKD”.

How did the “NMR chemical shift perturbation / signal change of Lin28_ZKD” value (Lin28_ZKD [2]; 1H-15N HSQC, 1:1 ratio) turn out when “ORN7: AGGAGAUAACU, PS-MOE (all 2'-MOE, all phosphorothioate, methylation of C and T or U not given here; further chemistry not fully specified)” was run?
The value was “some of the NMR signals broadened or disappeared”.

What about the “precipitation with Lin28_ZKD in NMR titration” value (Lin28_ZKD [2]; at higher concentrations) of the same compound?
The value was “precipitation at higher concentrations was also observed”.

And the IC50 (Lin28_ZKD [1]; Table 1, 40 nM Lin28_ZKD, 10 nM FAM-preE-let-7, 10 mM HEPES, 150 mM NaCl, pH 7.4, 30 min at 25 °C, 384-well, repeated at least three times, read-out: IC 50 determined by fluorescence polarization)?
The IC50 was 162 ± 38 nM.

What about the intracellular localization (K562 cells) of the same compound?
Its intracellular localization is “visible in the cytosol and the nuclei of cells”.

And the relative uptake (K562 cells; compared with ORN3)?
The relative uptake was “higher than that of ORN3”.
